biological target: T1, human recombinant A3AR (expressed in HEK-293 cells) (Homo sapiens, UniProt P0DMS8); test: Adenosine receptors antagonism assay (Eurofins), [125I]-AB-MECA radioligand competition; format: binding; conditions: [125I]-AB-MECA 0.15 nM, r.t., 120 min; IC50 from dose-response curves; read-out: Potency Class A3AR
T1 construct: host or cells: HEK-293 cells
T1 sequence (P0DMS8 1-318): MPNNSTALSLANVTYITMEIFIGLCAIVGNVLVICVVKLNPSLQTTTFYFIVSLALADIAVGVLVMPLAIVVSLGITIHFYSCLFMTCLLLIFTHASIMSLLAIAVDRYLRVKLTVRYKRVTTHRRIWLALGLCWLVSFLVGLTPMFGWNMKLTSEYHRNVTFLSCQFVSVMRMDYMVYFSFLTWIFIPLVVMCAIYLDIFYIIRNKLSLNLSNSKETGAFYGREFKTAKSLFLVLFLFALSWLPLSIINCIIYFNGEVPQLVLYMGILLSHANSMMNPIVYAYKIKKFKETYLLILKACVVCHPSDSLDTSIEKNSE

| Compound | IC50 |
| --- | --- |
| CCC(CC)Nc1cc(NCc2cccc(O)c2)c2nnc(C(C)C)n2n1 [compound 41, 3-[[[6-(1-ethylpropylamino)-3-isopropyl-[1,2,4]triazolo[4,3-b]pyridazin-8-yl]amino]methyl]phenol] | 1 to 10 nM |
| CCC(CC)Nc1cc(NCc2ccccc2O)c2nnc(C(C)C)n2n1 [compound 40, 2-[[[6-(1-ethylpropylamino)-3-isopropyl-[1,2,4]triazolo[4,3-b]pyridazin-8-yl]amino]methyl]phenol] | 1 to 10 nM |
| CCC(CC)Nc1cc(NCCc2cccnc2)c2nnc(C(C)C)n2n1 [compound 84, N6-(1-ethylpropyl)-3-isopropyl-N8-[2-(3-pyridyl)ethyl]-[1,2,4]triazolo[4,3-b]pyridazine-6,8-diamine] | 1 to 10 nM |
| CC[C@H](CO)Nc1cc(NCc2ccccc2)c2nnc(C3CC3)n2n1 [compound 30, (2R)-2-[[8-(benzylamino)-3-cyclopropyl-[1,2,4]triazolo[4,3-b]pyridazin-6-yl]amino]butan-1-ol] | 100 to 1000 nM |
| CCC(CC)Nc1cc(NCc2cccnn2)c2nnc(C3CC3)n2n1 [compound 216, 3-cyclopropyl-N6-(pentan-3-yl)-N8-(pyridazin-3-ylmethyl)-[1,2,4]triazolo[4,3-b]pyridazine-6,8-diamine] | 1 to 10 nM |
| CCC(CC)Nc1cc(Nc2cc(OC)ccn2)c2nnc(C(C)C)n2n1 [compound 156, 3-isopropyl-N8-(4-methoxypyridin-2-yl)-N6-(pentan-3-yl)-[1,2,4]triazolo[4,3-b]pyridazine-6,8-diamine] | 1 to 10 nM |
| CCC(CC)Nc1cc(NCc2ccccc2)c2nnc(C(C)C)n2n1 [compound 18, N8-benzyl-N6-(1-ethylpropyl)-3-isopropyl-[1,2,4]triazolo[4,3-b]pyridazine-6,8-diamine] | 1 to 10 nM |
| CCC(CC)Nc1cc(Nc2ccnnc2)c2nnc(C3CC3)n2n1 [compound 176, 3-cyclopropyl-N6-(pentan-3-yl)-N8-(pyridazin-4-yl)-[1,2,4]triazolo[4,3-b]pyridazine-6,8-diamine] | 1 to 10 nM |
| CCC(CC)Nc1cc(Nc2ccc(OC)cn2)c2nnc(C(C)C)n2n1 [compound 155, 3-isopropyl-N8-(5-methoxypyridin-2-yl)-N6-(pentan-3-yl)-[1,2,4]triazolo[4,3-b]pyridazine-6,8-diamine] | < 1 nM |
| CCC(CC)Nc1cc(NCCCc2ccccc2)c2nnc(C(C)C)n2n1 [compound 170, N6-(1-ethylpropyl)-3-isopropyl-N8-(3-phenylpropyl)-[1,2,4]triazolo[4,3-b]pyridazine-6,8-diamine] | 1 to 10 nM |
| CC(C)c1nnc2c(NCc3ccccc3)cc(N[C@@H]3CCCOC3)nn12 [compound 21, N8-benzyl-3-isopropyl-N6-[(3R)-tetrahydropyran-3-yl]-[1,2,4]triazolo[4,3-b]pyridazine-6,8-diamine] | 10 to 100 nM |
| CCc1nnc2c(NCc3ccccn3)cc(NC(CC)CC)nn12 [compound 59, 3-ethyl-N6-(1-ethylpropyl)-N8-(2-pyridylmethyl)-[1,2,4]triazolo[4,3-b]pyridazine-6,8-diamine] | 1 to 10 nM |
| CCC(CC)CNc1cc(NCCc2cccnc2)c2nnc(C(C)C)n2n1 [compound 166, N6-(2-ethylbutyl)-3-isopropyl-N8-[2-(3-pyridyl)ethyl]-[1,2,4]triazolo[4,3-b]pyridazine-6,8-diamine] | 1 to 10 nM |
| CCC(CC)Nc1cc(NC(=O)c2ccccc2)c2nnc(C(C)C)n2n1 [compound 96, N-[6-(1-ethylpropylamino)-3-isopropyl-[1,2,4]triazolo[4,3-b]pyridazin-8-yl]benzamide] | 10 to 100 nM |
| CC(C)c1nnc2c(NCc3ccccc3)cc(NCCCO)nn12 [compound 9, 3-[[8-(benzylamino)-3-isopropyl-[1,2,4]triazolo[4,3-b]pyridazin-6-yl]amino]propan-1-ol] | 100 to 1000 nM |
| CC(C)c1nnc2c(NCc3ccccn3)cc(NCc3ccccc3)nn12 [compound 56, N6-benzyl-3-isopropyl-N8-(2-pyridylmethyl)-[1,2,4]triazolo[4,3-b]pyridazine-6,8-diamine] | 1 to 10 nM |
| CC(C)c1nnc2c(NCc3ccccc3)cc(NCCO)nn12 [compound 11, 2-[[8-(benzylamino)-3-isopropyl-[1,2,4]triazolo[4,3-b]pyridazin-6-yl]amino]ethanol] | 100 to 1000 nM |
| c1ccc(CNc2cc(NC3CCC3)nn3c(C4CC4)nnc23)nc1 [compound 198, N6-cyclobutyl-3-cyclopropyl-N8-(pyridin-2-ylmethyl)-[1,2,4]triazolo[4,3-b]pyridazine-6,8-diamine] | 1 to 10 nM |
| CCC(CC)Nc1cc(NCc2ccccn2)c2nnc(-c3ccccc3)n2n1 [compound 66, N6-(1-ethylpropyl)-3-phenyl-N8-(2-pyridylmethyl)-[1,2,4]triazolo[4,3-b]pyridazine-6,8-diamine] | 10 to 100 nM |

| Compound | IC50 |
| --- | --- |
| CC(C)c1nnc2c(NCc3ccccc3)cc(N[C@H](CO)[C@@H](C)O)nn12 (stereo in doubt) [compound 5, (2R,3R)-2-[[8-(benzylamino)-3-isopropyl-[1,2,4]triazolo[4,3-b]pyridazin-6-yl]amino]butane-1,3-diol] | 100 to 1000 nM |
| CC(C)c1nnc2c(NCc3ccccn3)cc(NC3CCC(F)(F)CC3)nn12 [compound 55, N6-(4,4-difluorocyclohexyl)-3-isopropyl-N8-(2-pyridylmethyl)-[1,2,4]triazolo[4,3-b]pyridazine-6,8-diamine] | 10 to 100 nM |
| CC[C@@H](CO)Nc1cc(NCc2ccc(-c3cccnc3)cc2)c2nnc(C(C)C)n2n1 [compound 104, (2S)-2-[[3-isopropyl-8-[[4-(3-pyridyl)phenyl]methylamino]-[1,2,4]triazolo[4,3-b]pyridazin-6-yl]amino]butan-1-ol] | 10 to 100 nM |
| CC(C)c1nnc2c(NCc3ccccc3)cc(NCCOCCOCCN)nn12 [compound 8, N6-[2-[2-(2-aminoethoxy)ethoxy]ethyl]-N8-benzyl-3-isopropyl-[1,2,4]triazolo[4,3-b]pyridazine-6,8-diamine] | 100 to 1000 nM |
| CC(C)c1nnc2c(NCc3ccccc3)cc(NC(CO)CO)nn12 [compound 3, 2-[[8-(benzylamino)-3-isopropyl-[1,2,4]triazolo[4,3-b]pyridazin-6-yl]amino]propane-1,3-diol] | 100 to 1000 nM |
| COCCCNc1cc(NCc2ccccc2)c2nnc(-c3ccccc3)n2n1 [compound 34, N8-benzyl-N6-(3-methoxypropyl)-3-phenyl-[1,2,4]triazolo[4,3-b]pyridazine-6,8-diamine] | 100 to 1000 nM |
| CCC(CC)Nc1cc(NCCc2ccccc2)c2nnc(C3CC3)n2n1 [compound 217, 3-cyclopropyl-N6-(pentan-3-yl)-N8-phenethyl-[1,2,4]triazolo[4,3-b]pyridazine-6,8-diamine] | 1 to 10 nM |
| c1ccc(CNc2cc(NC3CCCCC3)nn3c(C4CC4)nnc23)nc1 [compound 200, N6-cyclohexyl-3-cyclopropyl-N8-(pyridin-2-ylmethyl)-[1,2,4]triazolo[4,3-b]pyridazine-6,8-diamine] | 1 to 10 nM |
| CC[C@H](CO)Nc1cc(N[C@H](CC)CO)c2nnc(C(C)C)n2n1 [compound 113, (2R)-2-[[6-[[(1R)-1-(hydroxymethyl)propyl]amino]-3-isopropyl-[1,2,4]triazolo[4,3-b]pyridazin-8-yl]amino]butan-1-ol] | 100 to 1000 nM |
| COc1ccc(CNc2cc(NCc3ccccn3)c3nnc(C4CC4)n3n2)cc1 [compound 187, 3-cyclopropyl-N6-(4-methoxybenzyl)-N8-(pyridin-2-ylmethyl)-[1,2,4]triazolo[4,3-b]pyridazine-6,8-diamine] | 1 to 10 nM |
| CCOC(=O)Nc1cc(NC(CC)CC)nn2c(C(C)C)nnc12 [compound 99, ethyl N-[6-(1-ethylpropylamino)-3-isopropyl-[1.2.4]triazolo[4,3-b]pyridazin-8-yl]carbamate] | 1 to 10 nM |
| CCC(CC)Nc1cc(Nc2cnccn2)c2nnc(C(C)C)n2n1 [compound 153, 3-isopropyl-N6-(pentan-3-yl)-N8-(pyrazin-2-yl)-[1,2,4]triazolo[4,3-b]pyridazine-6,8-diamine] | < 1 nM |
| CC[C@H](CO)Nc1cc(NCc2ccccc2)c2nnc(-c3ccccc3)n2n1 [compound 35, (2R)-2-[[8-(benzylamino)-3-phenyl-[1,2,4]triazolo[4,3-b]pyridazin-6-yl]amino]butan-1-ol] | 10 to 100 nM |
| CCC(CC)Nc1cc(NCc2ccccc2N)c2nnc(C(C)C)n2n1 [compound 77, N8-[(2-aminophenyl)methyl]-N6-(1-ethylpropyl)-3-isopropyl-[1,2,4]triazolo[4,3-b]pyridazine-6,8-diamine] | 10 to 100 nM |
| c1ccc(CNc2cc(N[C@@H]3CCOC3)nn3c(C4CC4)nnc23)nc1 [compound 213, (R)-3-cyclopropyl-N8-(pyridin-2-ylmethyl)-N6-(tetrahydrofuran-3-yl)-[1,2,4]triazolo[4,3-b]pyridazine-6,8-diamine] | 100 to 1000 nM |
| CC[C@@H](CO)Nc1cc(NCc2ccccn2)c2nnc(C3CC3)n2n1 [compound 212, (S)-2-((3-cyclopropyl-8-((pyridin-2-ylmethyl)amino)-[1,2,4]triazolo[4,3-b]pyridazin-6-yl)amino)butan-1-ol] | 10 to 100 nM |
| CC(C)c1nnc2c(NCc3ccc(Br)cc3)cc(N[C@H](CO)[C@@H](C)O)nn12 [compound 106, (2R,3R)-2-[[8-[(4-bromophenyl)methylamino]-3-isopropyl-[1,2,4]triazolo[4,3-b]pyridazin-6-yl]amino]butane-1,3-diol] | 100 to 1000 nM |
| CCC(CC)Nc1cc(NCc2cc3ccccc3[nH]2)c2nnc(C(C)C)n2n1 [compound 78, N6-(1-ethylpropyl)-N8-(1H-indol-2-ylmethyl)-3-isopropyl-[1,2,4]triazolo[4,3-b]pyridazine-6,8-diamine] | 10 to 100 nM |

Source: patent EP4477653A1 (Perha Pharmaceuticals, priority 2023, dated 2024)
